# From US20240199977A1, “COMPOSITIONS COMPRISING A META-(C1-C4 ALKOXY) […]” (The Procter & Gamble Company, priority 2022, published 2024)
# Where two headings read alike, the source gives them in different places.
# Tests used:
# [1] = Headspace Method, Air/IPM partition (dynamic headspace GC/MS); assay type: physicochemical; conditions: for Air/IPM partition coef / Headspace: 30° C.; for Headspace: above IPM solution of about 2.1E+06 ng/mL
# Experimental: (§1) Perfume headspace data is collected for various materials according to the method provided below.
# (§2) The partition coefficients are calculated by determining the amount of PRM in the headspace above a solution with a known concentration using a GC/FID-MS (Agilent 7890 and 5977A MSD) with a thermal desorption unit (Gerstel MPS2) and Dynamic Headspace Sampler (Gerstel DHS). This technique allows for automated headspace collections using the MultiPurposeSampler (MPS). The PRMs of interest are prepared at a known concentration in isopropyl myristate (IPM) or propylene glycol monomethyl ether (DPM), and 1 mL is pipetted in a 20 mL headspace vial.
# (§3) DHS Conditions: The sample is tempered in the unit at 30° C. A helium stream at 10 mls/min purges 20 mL of headspace containing the analytes above the sample onto the sorbent tube (TDU) containing 25 mg of TenaxTA 35/60 (Restek cat # 25701).
# (§4) TDU conditions: The sorbent tube is desorbed with a program starting at 30° C. solvent vent for 2 min then ramped at 720° C./min to 270 ° C. and held for 8 min. The analytes are refocused on a glass bead liner at -60° C. then desorbed at a rate of 12 ° C./s to 270° C. onto the GC column.
# (§5) GC/MS conditions: Agilent 122-5532UI column of 30 m×250 μm×0.25 μm and a flow rate of 1.5 mL/min is utilized. A temperature program of 50° C. to 280° C. with a 2 min hold and a ramp rate of 12° C./min is suitable. Scan or SIM mode MSD parameters with a solvent delay for the DPM are applied to achieve appropriate detection.
# (§6) Analytical standards can be obtained from Sigma Aldrich, St. Louis, MO and BioSynth, UK. A stock solution is prepared at approximately 0.5 g/L. The stock solution is then diluted to 4 to 5 concentrations ranging from approximately 0.05 g/L to 0.00005 g/L. These standard solutions are then analyzed by GC/MS. This analysis is performed by using the same TDU desorption and GC/MS conditions described above with a luL liquid injection onto the TDU tube instead of the DHS collection. The amount injected on column and the area responses of the target m/z are utilized to create a calibration plot with a linear fit.
# (§7) Quantification of the headspace is performed by the PRM target m/z area response of the perfume component and the linear equation of the calibration plot.
# (§8) Perfume headspace data is collected for various materials according to the Headspace 5 Method provided above in the Test Methods section. The Air/Solvent partition coefficients are determined and indexed accordingly (e.g., where the partition coefficient for ethylvanillin is set at 1.00).
# [2] = Headspace Method, Air/DPM partition (dynamic headspace GC/MS); assay type: physicochemical; conditions: for Air/DPM partition coef / Headspace: 30° C.; for Headspace: above DPM solution of 1.1E+07 ng/mL
# Experimental: as §1, §2, §3, §4, §5, §6, §7, §8
# physchem = conditions: oil or lipid, thermodynamic from solid
Ethylvanillin Indexed Air/IPM partition coefficient [1],Air/IPM partition coef ([1]; average of two replicates),Headspace ([1]; average of two replicates) [ng/mL],goes into the headspace more than its structural isomer ethylvanillin ([1]; out of IPM),Ethylvanillin Indexed Air/DPM partition coefficient [2],Air/DPM partition coef ([2]; average of three replicates),Headspace ([2]; average of three replicates) [ng/mL],goes into the headspace more than ethylvanillin ([2]; out of DPM),SMILES,solubility (physchem) [mg/mL],"Ethylvanillin Indexed Air/IPM partition coefficient ([1]; indexed, ethylvanillin set at 1.00, average of two replicates)","Ethylvanillin Indexed Air/DPM partition coefficient ([2]; indexed, ethylvanillin set at 1.00, average of three replicates)"
6.17,1.21E−07 ng/mL in air per ng/mL in IPM,0.2521,about 6.2 X,93.7,2.31E−07 ng/mL in air per ng/mL in DPM,2.4678,about 94 X,"CCOc1cccc(C=O)c1O [ortho-Ethylvanillin, 2-hydroxy-3-ethoxybenzaldehyde]",73,,
1.40,2.73E−08 ng/mL in air per ng/mL in IPM,0.0563,,4.88,1.21E−08 ng/mL in air per ng/mL in DPM,0.1288,,COc1cc(C=O)ccc1O [Vanillin],,,

SMILES,Ethylvanillin Indexed Air/IPM partition coefficient [1],Air/IPM partition coef ([1]; average of two replicates),Headspace ([1]; average of two replicates) [ng/mL],goes into the headspace more than its structural isomer ethylvanillin ([1]; out of IPM),Ethylvanillin Indexed Air/DPM partition coefficient [2],Air/DPM partition coef ([2]; average of three replicates),Headspace ([2]; average of three replicates) [ng/mL],goes into the headspace more than ethylvanillin ([2]; out of DPM),solubility (physchem) [mg/mL],"Ethylvanillin Indexed Air/IPM partition coefficient ([1]; indexed, ethylvanillin set at 1.00, average of two replicates)","Ethylvanillin Indexed Air/DPM partition coefficient ([2]; indexed, ethylvanillin set at 1.00, average of three replicates)"
CCOc1cc(C=O)ccc1O [Ethylvanillin],,1.95E−08 ng/mL in air per ng/mL in IPM,0.0402,,,2.45E−09 ng/mL in air per ng/mL in DPM,0.0262,,38,1.00,1.00
